Laboratory results: patent US4994473A, “Pyridyl containing insecticides” (ICI Americas Inc., priority 1988, dated 1991)

Columns and labels:
Musca domestica = experiment: Housefly contact test, mortality after 48 hours; format: in vivo, Housefly Musca domestica; details: μg of the test compound per 25 female flies
Experimental: (§1) The compounds in Table I above were tested for insecticidal activity using the following testing procedures. LC50 values, based on the results of these tests and calculated according to dosage-mortality curves, are expressed in Table II.
The test compound was diluted in acetone and aliquots pipetted onto the bottom of aluminum dishes. To ensure even spreading of the chemical on the bottom of the dishes, 1 ml of acetone containing 0.01% peanut oil was also added to each dish. After all solvents had evaporated, the dishes were placed in circular cardboard cages containing 25 female houseflies, 1-2 days old. The cages were covered on the bottom with cellophane and on the top with tulle netting, and each contained a sugar-water saturated cotton plug for maintenance of the flies. Mortality was recorded after 48 hours. Test levels ranged from 100 μg/25 female houseflies downward. The LC-50 value is expressed below in Table II under the heading "HF", in terms of μg of the test compound per 25 female flies.

Heliothis virescens = experiment: Tobacco budworm egg dip test; format: in vivo, Tobacco Budworm Heliothis virescens (Fabricius); details: 2-day old eggs (TBW-E), percent of test compound in solution
Experimental: as §1
Tobacco Budworm Heliothis virescens (Fabricius)
Eggs: Paper towel patches of 2-day old eggs of the tobacco budworm were dipped in acetone solutions of the test compound and placed in petri dishes containing a portion of larval rearing medium. Treated eggs were maintained at 78° F. and mortality was recorded after all control eggs had hatched and the young larvae were feeding on the media. Test concentrations ranged from 0.1% downward. The LC-50 value is expressed below in Table II under the heading "TBW-E" in terms of percent of the test compound in the solution.

Trichoplusia ni = experiment: Cabbage looper larvae leaf-dip test; format: in vivo, Cabbage Looper Trichoplusia ni (Hubner); details: second instar larvae, percent of test compound in solution, 3-5 days
Experimental: as §1
Cabbage Looper Trichoplusia ni (Hubner)
The test compound was diluted in a 50--50 acetone-water solution Cotyledons of hyzini squash (Calabacita abobrinha), approximately 1×1.5 inches, were immersed in the test solutions for 2-3 seconds and placed on a wire screen to dry. The dried leaves were p1aced in petri dishes containing a moistened piece of filter paper and infested with 5 secondinstar cabbage looper larvae. The dishes were placed in a high humidity chamber. Mortality of the larvae was recorded 3-5 days later. Test concentrations ranged from 0.1% downward. The LC-50 value is expressed below in Table II under the heading "CL" in terms of percent of the test compound in solution.

[1] = tested on: Diabrotica undecimpunctata undecimpunctata; experiment: Western spotted cucumber beetle larvae soil test; format: in vivo; details: Diabrotica eggs/larvae; ppm of the test compound in the soil
Experimental: as §1
Western Spotted Cucumber Beetle Larvae Diabrotica undecimpunctata undecimpunctata (Mannherheim)
Ten grams of moist potting soil was placed in a plastic cup. The test compound was dissolved in acetone. A 0.05 ml aliquot of the test sample, diluted to the desired concentration, was added to the soil. The cup was capped and the soil was mixed on a vortex mixer for approximately 15 seconds. An indentation was made on the surface of the soil and approximately 50 Diabrotica eggs were added. The eggs were covered with soil and maintained at room temperature (approximately 70° F. or 21° C.). Four days later a section of Romaine lettuce (Latuca sativa) leaf was placed in the treated cups. One week later the cups were examined for live larvae. Test concentrations ranged from 25 ppm downward. The LC-50 value is expressed below in Table II under the heading "Diabrotica" in terms of ppm of the test compound in the soil.

Tetranychus urticae = experiment: Two-spotted mite acaricidal test on pinto bean plants; format: in vivo, two-spotted mite Tetranychus urticae (Koch); details: percent concentration in solution, 5-7 days; for LC50 2-SM A: adults; for LC50 2-SM E: eggs
From the text: Acaricidal Evaluation Test
The two-spotted mite (2SM) [Tetranychus urticae (Koch)]was employed in tests for miticides. The test procedure was as follows:
Pinto bean plants (Phaseolus sp.) approximately 10 cm tall, were transplanted into sandy loam soil in small cups and thoroughly infested with two-spotted mites of mixed ages and sexes. Twenty-four hours later the infested plants were inverted and dipped for 2-3 seconds in 50--50 acetone-water solutions of the test compound. Treated plants were held in the greenhouse, and 5-7 days later mortality was determined for both adult mites and the nymphs hatching from eggs which were on the plants at the time of treatment. Test concentrations ranged from 0.05% downward. The LC-50 value is expressed below in Table II under the headings "2SM-A" (i.e., adults) and "2SM-E" (i.e. eggs) in terms of percent concentration of the test compound in the solution.

Aphis fabae = experiment: Black bean aphid spray test on nasturtium plants, mortality after 48 hours; format: in vivo, Black Bean Aphid Aphis fabae (Scop.); details: mixed ages, percent of test compound in sprayed solution
Experimental: as §1
Black Bean Aphid Aphis fabae (Scop.)
Nasturtium plants (Tropaeolum sp.) approximately 5 cm tall, were transplanted into sandy loam soil in small cups and infested with 25-50 black bean aphids of mixed ages. Twenty-four hours later they were sprayed to the point of runoff with 50--50 acetone-water solutions of the test compound. Treated plants were held in the greenhouse and mortality was recorded after 48 hours. Test concentrations ranged from 0.05% downward. The LC-50 value is expressed below in Table II under the heading "BA" in terms of percent of the test compound in the sprayed solution.

SMILES	LC50 HF (Musca domestica) [µg]	LC50 TBW (Heliothis virescens) [%]	LC50 CL (Trichoplusia ni) [%]	LC50 Diabrotica [1] [ppm]	LC50 2-SM A (Tetranychus urticae) [%]	LC50 2-SM E (Tetranychus urticae) [%]	LC50 BA (Aphis fabae) [%]
Cc1nc2cc(N=C(OCc3cccc(Oc4ccccc4)c3)C(C)C)ccc2o1 [Compound 24]	> 100	> 0.1	0.0075	> 25	> 0.05	> 0.05	
Cc1ccc(N=C(OCc2cccc(Oc3ccccc3)c2)C(C)C)cn1 [Compound 10]	25	> 0.1	> 0.1		> 0.05	> 0.05	0.05
CC(C)C(=Nc1ccc2nc(C(C)C)oc2c1)OCc1cccc(Oc2ccccc2)c1 [Compound 27]	> 100	> 0.1	0.0035		> 0.05	> 0.05	> 0.05
CC(C)(Cl)C(=Nc1ccc(Br)nc1)OCc1cccc(Oc2ccccc2)c1 [Compound 12]	12	> 0.1	0.02		> 0.05	> 0.05	0.05
CC(C)C(=Nc1cncc(C(F)(F)F)c1)OCc1cccc(Oc2ccc(F)cc2)c1 [Compound 35]	23	0.1	0.001	> 25	> 0.05	> 0.05	
CC(C)C(=Nc1ccc2ocnc2c1)OCc1cccc(Oc2ccccc2)c1 [Compound 19]	10	> 0.1	0.04	> 25	> 0.05	> 0.05	
CC(C)C(=Nc1cnc2ccccc2c1)OCc1cccc(Oc2ccccc2)c1 [Compound 17]	36	> 0.1	0.05	> 25	> 0.05	> 0.05	
CC(C)C(=Nc1cncc(Br)c1)OCc1cccc(Oc2ccccc2)c1 [Compound 13]	7	> 0.1	0.015				> 0.05
CC(C)C(=Nc1ccc2ncsc2c1)OCc1cccc(Oc2ccccc2)c1 [Compound 20]	6		0.009				
CC(C)C(=Nc1cc(C(F)(F)F)ccn1)OCc1cccc(Oc2ccccc2)c1 [Compound 34]	> 100	> 0.1	0.018	> 25	> 0.05	> 0.05	
CC(C)C(=Nc1ccc2nc(C(C)C)sc2c1)OCc1cccc(Oc2ccccc2)c1 [Compound 21]	> 100	> 0.1	0.05	> 25	> 0.05	> 0.05	
CC(C)C(=Nc1ccc(Cl)nc1)OCc1cccc(Oc2ccc(F)cc2)c1 [Compound 22]	9	0.05	0.001	> 25	> 0.05	> 0.05	
CC(C)C(=Nc1cc(C(F)(F)F)ccn1)OCc1cccc(Oc2ccc(F)cc2)c1 [Compound 36]	> 100	> 0.1	0.015	> 25	> 0.05	> 0.05	
CC(C)C(=Nc1ccc2ncoc2c1)OCc1cccc(Oc2ccccc2)c1 [Compound 18]	8	> 0.1	0.009	> 25	> 0.05	> 0.05	
CC(C)C(=Nc1ccc(Cl)nc1)NCc1cccc(Oc2ccccc2)c1 [Compound 23]	> 100	> 0.1	0.1	> 25	> 0.05	> 0.05	
CC(C)C(=Nc1ccc(Cl)nc1)OCc1ccc(F)c(Oc2ccc(F)cc2)c1 [Compound 31]	7.5	0.45	0.0016	> 25	> 0.05	> 0.05	
CC(C)C(=Nc1ccc(Cl)nc1)OCc1ccc(F)c(Oc2ccc(Cl)cc2)c1 [Compound 32]	22	0.03	0.00075	> 25	> 0.05	0.05	
Cc1nc2ccc(N=C(OCc3cccc(Oc4ccccc4)c3)C(C)C)cc2o1 [Compound 25]	38	> 0.1	0.0075	> 25	> 0.05	> 0.05	
CC(C)C(=Nc1ccc2ncccc2c1)OCc1cccc(Oc2ccccc2)c1 [Compound 16]	59	> 0.1	0.025	> 25	> 0.05	> 0.05	
